Here are results for eight molecules from patent publication US9650395B2, “Antibacterial compounds and methods for use” (PTC Therapeutics, Inc., priority 2011, dated 2017).

Assay [1] deals with super sensitive Gram-negative Escherichia coli (E. coli) BAS849. Description: Antibacterial activity, microbroth dilution MIC, E. coli BAS849. Type of assay: cell-based. Particulars: Escherichia coli; E. coli BAS849, microbroth dilution; read-out: MIC, BAS849. On the technique in general: Broth dilution looks for growth in wells or tubes with falling amounts of substance.
Assay [2] concerns Klebsiella pneumoniae (K. pneumoniae) 35657. Description: Antibacterial activity, MIC, K. pneumoniae 35657. Type of assay: cell-based. As to conditions: Klebsiella pneumoniae.
The subject of assay [3] is Acinetobacter baumannii (A. baumannii) BAA747. Description: Antibacterial activity, MIC, A. baumannii BAA747. Type of assay: cell-based. Particulars: Acinetobacter baumannii; A. baumannii BAA747; read-out: MIC BAA747.
Assay [4] deals with Pseudomonas aeruginosa (P. aeruginosa) 27853. In words: Antibacterial activity, MIC, P. aeruginosa 27853. Type of assay: cell-based. Particulars: Pseudomonas aeruginosa, P. aeruginosa 27853; read-out: MIC 27853. From the text: (§1) The antibacterial activity from a microbroth dilution method may be presented as the minimum inhibitory concentration (MIC in […]). The MIC value is the lowest concentration of a drug which prevents macroscopically visible bacterial growth under test conditions.
Antibacterial activity of test compounds against the Gram-negative bacterium Pseudomonas aeruginosa (P. aeruginosa) 27853 is shown in Table 5.

The subject of assay [5] is quinolone resistant E. coli LZ3111. In words: Antibacterial activity, MIC, quinolone resistant E. coli LZ3111. It counts as cell-based, Escherichia coli. As to conditions: Escherichia coli, read-out: MIC, LZ3111.
Description: as §1
Mutations in these regions are known to confer a high level resistance to the quinolone class of antibiotics.

The test system of assay [6] is Gram-positive Staphylococcus aureus (S. aureus) 29213. Description: Antibacterial activity, microbroth dilution MIC, S. aureus 29213. It counts as cell-based. Particulars: Staphylococcus aureus; S. aureus 29213, microbroth dilution; read-out: MIC, 29213.
The test system of assay [7] is resistant K. pneumoniae MXX1232 (MDR clinical isolate). Description: Antibacterial activity, MIC, resistant K. pneumoniae MXX1232. It counts as cell-based, Klebsiella pneumoniae. As to conditions: Klebsiella pneumoniae; resistant K. pneumoniae MMX1232, MDR clinical isolate; read-out: MIC MMX1232.
Assay [8] concerns control Gram-negative E. coli 25922 strain. Description: Antibacterial activity, microbroth dilution MIC, E. coli 25922. As to conditions: Escherichia coli; E. coli 25922, microbroth dilution; read-out: MIC, 25922. Type of assay: cell-based, Escherichia coli.
In assay [9] the test system is resistant A. baumannii MXX2240 (MDR clinical isolate). Description: Antibacterial activity, MIC, resistant A. baumannii MXX2240. Type of assay: cell-based, Acinetobacter baumannii. As to conditions: Acinetobacter baumannii, resistant A. baumannii MMX2240, MDR clinical isolate; read-out: MIC MMX2240.

≈ marks a conversion by molar mass, not a printed value.

What is called MIC is the smallest concentration in the dilution series that meets the test's criterion for growth inhibition. Turning to `C/C=C/c1c(-c2ccc(N(C)C)cc2)[nH]c(=O)c(C(=O)O)c1O` [Cpd 330, (E)-6-(4-(dimethylamino)phenyl)-4-hydroxy-2-oxo-5-(prop-1-enyl)-1,2-dihydropyridine-3-carboxylic acid], the MIC in [1] lay in the range of 1 to 3.5 µg/mL (≈ 3.18 to 11.1 µM); in [2], 12.5 to 150 µg/mL (≈ 39.8 to 477 µM); in [3], 12.5 to 150 µg/mL (≈ 39.8 to 477 µM); in [4], 12.5 to 150 µg/mL (≈ 39.8 to 477 µM); in [5], 12.5 to 150 µg/mL (≈ 39.8 to 477 µM); in assay [6] it was 12.5 to 150 µg/mL (≈ 39.8 to 477 µM). Further, the MIC in assay [7], in assay [8] and in assay [9] was 12.5 to 150 µg/mL (≈ 39.8 to 477 µM) throughout.
With `CN(C)c1ccc(-c2[nH]c(=O)c(C(=O)O)c(O)c2CO)cc1` [Cpd 331, 6-(4-(dimethylamino)phenyl)-4-hydroxy-5-(hydroxymethyl)-2-oxo-1,2-dihydropyridine-3-carboxylic acid], the minimum inhibitory concentration (MIC) lay within 1 to 3.5 µg/mL (≈ 3.29 to 11.5 µM) in [1]; 12.5 to 150 µg/mL (≈ 41.1 to 493 µM) in [2]; 12.5 to 150 µg/mL (≈ 41.1 to 493 µM) in [3]; 12.5 to 150 µg/mL (≈ 41.1 to 493 µM) in [4]; 3.5 to 12.5 µg/mL (≈ 11.5 to 41.1 µM) in assay [5]; 12.5 to 150 µg/mL (≈ 41.1 to 493 µM) in assay [6]. Further, the MIC in assay [7], in assay [8] and in [9] was 12.5 to 150 µg/mL (≈ 41.1 to 493 µM) each time.
Regarding `COCc1c(-c2ccc(N(C)C)cc2)[nH]c(=O)c(C(=O)O)c1O` [Cpd 332, 6-(4-(dimethylamino)phenyl)-4-hydroxy-5-(methoxymethyl)-2-oxo-1,2-dihydropyridine-3-carboxylic acid], the minimum inhibitory concentration (MIC) in assay [1], in assay [2], in assay [3], in [4], in assay [5] and in assay [6] was 12.5 to 150 µg/mL (≈ 39.3 to 471 µM) throughout. For the same molecule, the MIC in assay [7], in [8] and in assay [9] was 12.5 to 150 µg/mL (≈ 39.3 to 471 µM) each time.
Take `CC#Cc1c(-c2ccc(N(C)C)cc2)[nH]c(=O)c(C(=O)O)c1O` [Cpd 333, 6-(4-(dimethylamino)phenyl)-4-hydroxy-2-oxo-5-(prop-1-ynyl)-1,2-dihydropyridine-3-carboxylic acid]: the MIC in assay [1] is 1 to 3.5 µg/mL (≈ 3.2 to 11.2 µM); in [2], 12.5 to 150 µg/mL (≈ 40 to 480 µM); in assay [3], 12.5 to 150 µg/mL (≈ 40 to 480 µM); in assay [4], 12.5 to 150 µg/mL (≈ 40 to 480 µM); in assay [5], 12.5 to 150 µg/mL (≈ 40 to 480 µM); in assay [6], 12.5 to 150 µg/mL (≈ 40 to 480 µM). Also, the MIC in assay [7], in assay [8] and in assay [9] was 12.5 to 150 µg/mL (≈ 40 to 480 µM) each time.
On to `CCc1c(-c2ccc(O)cc2)[nH]c(=O)c(C(=O)O)c1O` [Cpd 334, 5-ethyl-4-hydroxy-6-(4-hydroxyphenyl)-2-oxo-1,2-dihydropyridine-3-carboxylic acid], for which the MIC in assay [1] lay within 3.5 to 12.5 µg/mL (≈ 12.7 to 45.4 µM); in assay [2] it was 12.5 to 150 µg/mL (≈ 45.4 to 545 µM); in [3], 12.5 to 150 µg/mL (≈ 45.4 to 545 µM); in [4], 12.5 to 150 µg/mL (≈ 45.4 to 545 µM); in assay [5] it was 12.5 to 150 µg/mL (≈ 45.4 to 545 µM); in [6], 12.5 to 150 µg/mL (≈ 45.4 to 545 µM). In addition, the MIC in [7], in assay [8] and in [9] was 12.5 to 150 µg/mL (≈ 45.4 to 545 µM) throughout.
As to `CCc1c(-c2ccc(N3CCC(N(C)C)C3)nc2)[nH]c(=O)c(C(=O)O)c1O` (stereo not drawn) [Cpd 335, 6-(6-(3-(dimethylamino)pyrrolidin-1-yl)pyridin-3-yl)-5-ethyl-4-hydroxy-2-oxo-1,2-dihydropyridine-3-carboxylic acid], the MIC in [1] is 3.5 to 12.5 µg/mL (≈ 9.4 to 33.6 µM); in assay [2], 12.5 to 150 µg/mL (≈ 33.6 to 403 µM); in assay [3], 12.5 to 150 µg/mL (≈ 33.6 to 403 µM); in assay [4], 12.5 to 150 µg/mL (≈ 33.6 to 403 µM); in [5], below 1 µg/mL; in assay [6] it was 12.5 to 150 µg/mL (≈ 33.6 to 403 µM). The minimum inhibitory concentration (MIC) in [7], in [8] and in assay [9] was 12.5 to 150 µg/mL (≈ 33.6 to 403 µM) throughout.
On to `CCc1c(-c2ccc(N3CCCC3)nc2)[nH]c(=O)c(C(=O)O)c1O` [Cpd 336, 5-ethyl-4-hydroxy-2-oxo-6-(6-(pyrrolidin-1-yl)pyridin-3-yl)-1,2-dihydropyridine-3-carboxylic acid], for which the MIC in assay [1] was 1 to 3.5 µg/mL (≈ 3.04 to 10.6 µM); in assay [2], 12.5 to 150 µg/mL (≈ 38 to 455 µM); in assay [3], 12.5 to 150 µg/mL (≈ 38 to 455 µM); in assay [4] it was 12.5 to 150 µg/mL (≈ 38 to 455 µM); in [5] it was 3.5 to 12.5 µg/mL (≈ 10.6 to 38 µM); in [6], 12.5 to 150 µg/mL (≈ 38 to 455 µM). Moreover, the MIC in [7], in assay [8] and in assay [9] was 12.5 to 150 µg/mL (≈ 38 to 455 µM) each time.
For the molecule `Cc1c(-c2ccc(N3CCC(N(C)C)C3)nc2)[nH]c(=O)c(C(=O)O)c1O` (stereo not drawn) [Cpd 337, 6-(6-(3-(dimethylamino)pyrrolidin-1-yl)pyridin-3-yl)-4-hydroxy-5-methyl-2-oxo-1,2-dihydropyridine-3-carboxylic acid], the MIC is 12.5 to 150 µg/mL (≈ 34.9 to 419 µM) in assay [1]; 12.5 to 150 µg/mL (≈ 34.9 to 419 µM) in [2]; 12.5 to 150 µg/mL (≈ 34.9 to 419 µM) in assay [3]; 12.5 to 150 µg/mL (≈ 34.9 to 419 µM) in [4]; below 1 µg/mL in [5]; 12.5 to 150 µg/mL (≈ 34.9 to 419 µM) in assay [6]. In addition, the minimal inhibitory concentration (MIC) in assay [7], in assay [8] and in assay [9] was 12.5 to 150 µg/mL (≈ 34.9 to 419 µM) throughout.
